Data set [1] can be described thus: AAPH assay (oxygen radical absorbance capacity, ORAC). Particulars: concentration for 50% antioxidant capacity; average ± S.E.M. As for the experimental part: Antioxidant capacity measurement was carried out on 96-well microplates, based on oxygen radical absorbance capacity (ORAC) assay. A 20 μL aliquot of the sample (6 dilutions with buffer from 10 μg/mL stock solution dissolved in phosphate buffer, containing 1% MeOH), 120 μL of fluorescein (dissolved in phosphate buffer, pH = 7.4, 70 nM final concentration), and 60 μL of 2,2′-azobis(2-methylpropionamidine) dihydrochloride (AAPH, dissolved in phosphate buffer, pH = 7.4, 12 mM final concentration) were pipetted into each well. Each measurement was performed twice in duplicates. Each plate contained six dilutions of trolox as the standard, and phosphate buffer as blank. Flourescence (excitation at 485 nm and emission at 520 nm) was measured over a 3 h period with 1.5-min cycle intervals by a FluoStar Optima plate-reader (BMG Labtech GmbH). The antioxidant capacity was calculated for each concentration with the following formula: antioxidant capacity = (AUCAntioxidant − AUCBlank)/AUCBlank × 100 where AUC is the area under curve obtained for the sample and blank assays. Based on the linear correlation between the concentration of the samples and the antioxidant capacity, IC50 values could be obtained, which define the concentration (in µM) of each compound required to have 50% antioxidant capacity defined by the previous equation.

A short description of data set [2]: DPPH free radical scavenging assay. Particulars: 30 min, absorbance 550 nm; average ± S.E.M. The protocol:
The DPPH free radical scavenging assay was performed based on the method of Fukumoto et al. with some modification. The measurement was performed on a 96-well microplate. Microdilution series of the samples (0.2 mg/mL stock solution, dissolved in HPLC grade MeOH) were made starting with 100 μL. To each well 100 μL of DPPH reagent (100 μM in HPLC grade MeOH) was added to gain the final volume of 200 μL. The microplates were kept in dark, and the absorbance was measured after 30 min at 550 nm using a FluoStar Optima plate reader (software version 2.20R2, BMG Labtech, Ortenberg, Germany). Methanol was used as blank. The scavenging activity was calculated as Inhibition (%) = (A0 − As)/A0 × 100, and EC50 values were calculated by Graph Pad Prism (GraphPad Software, Inc., La Jolla, CA, USA).

A short description of data set [3]: Kinetic solubility in PBS. Particulars: for Kinetic Solubility: after 2 h, at 37 °C in PBS, pH 7.4, mean ± S.E.M, n = 3; for solubility kinetic at 2 h: PBS with 5% (v/v) DMSO, pH 7.4, aqueous with cosolvent or surfactant or cyclodextrin, kinetic from dmso stock.
Experimental: (§1) Kinetic solubility was tested with 5% (v/v) DMSO as cosolvent in phosphate buffered saline (PBS, 0.01 M phosphate buffer pH 7.4, 0.138 M NaCl, 0.0027 M KCl, without Ca^2+, Mg^2+) at room temperature for 2 h. Chemical stability was tested with 10% (v/v) DMSO as cosolvent in PBS pH 7.4 at 37 °C for 4 h. Metabolic stability was investigated on human liver microsomes (1 mg/mL), which were preincubated with 25 µM test compounds for 5 min at 37 °C in 0.1 M Tris-HCl buffer, pH 7.4 contained 6.67 mM Na-pyrophosphate, 5.56 mM MgCl2, 5.56 mM glucose-6-phosfate, 4.63 U/mL glucose-6-phosphate dehydrogenase. The reaction was initiated by adding preincubated cofactor (37 °C,10 mM NADPH). After 10, 30, and 60 min incubation at 37 °C, the reaction was stopped by adding equal volume of cooled methanol (−20 °C). The samples were centrifuged at 20,000 g for 5 min. The supernatant and all above described test solutions were analyzed by LC-MS/MS. LC-MS analysis was carried out on an Agilent 1200 liquid chromatography system coupled with an 6410 QQQ-MS (Agilent Technologies, Palo Alto, CA, USA). Analysis was on a Cortecs C18 column (150 × 4.6 mm, 2.7 µm, Waters) at 40 °C, with a mobile phase flow rate of 1.45 mL/min. Composition of eluent A was 0.1% (v/v) trifluoroacetic acid (TFA) in water (pH 1.9). A linear gradient of 0–100% B (acetonitrile (AcN) and water in 95:5 (v/v)) was applied at a range of 0–17 min, then 100% B at 17–22 min. The injection volume was set at 20 µL and chromatograms were registered at 220 ± 4 nm. The MSD operating parameters in ESI positive ionization mode were as follows: scan ion mode (100–800 m/z), drying gas temperature 350 °C, nitrogen flow rate 12 L/min, nebulizer pressure 40 psi, quadrupole temperature 100 °C, capillary voltage 4000 V, fragmentor voltage 135 V.
A short description of data set [4]: Metabolic stability in human liver microsomes. The settings on record: for Met.stab. in HLM t1/2: human liver microsomes 1 mg/mL, 25 µM compound, 37 °C, mean ± S.E.M, n = 3; for Met.stab. in HLM Cl'int: intrinsic clearance calculated from in vitro t1/2 data in HLM; for CLint scaled at 25 µM / half-life at 25 µM: human, human liver microsomes, pH 7.4.
Experimental: as §1
A further data set in a line: BBB-PAMPA permeability. Particulars: for Papp at 4 h, 100 µM: PAMPA.
The nature of a further data set: GI-PAMPA permeability. The settings on record: for GI-PAMPA MR (membrane retention) / GI-PAMPA Pe: PBS pH 7.4, 37 °C, 4 h; for Papp at 4 h, 100 µM: PAMPA, pH 7.4.
Data set [5] in a line: Chemical stability in PBS pH 7.4. Particulars: between 0–2 h at 37 °C in PBS, Stable = no chemical change detected during the evaluation time (4 h).
Experimental: as §1
The conditions of data set [6]: microsomes.
Experimental: as §1
For data set [7] the following is noted: pH 7.4.
Experimental: (§2) BBB and GI permeability was determined by using tissue-specific parallel artificial membrane permeability assay (GI-PAMPA [46], BBB-PAMPA [47]) models. Briefly, a 96-well acceptor plate and a 96-well filter plate were assembled into a sandwich. The hydrophobic filter material of the 96 well filter plate was coated by the mixture of phosphatidylcholine:cholesterol 2:1 (5 µL, 4 % (w/v) in dodecane: GI-PAMPA) or by porcine brain lipid (PBL) (5 µL, 2.6 % (w/v) in dodecane:hexane 25:75 v/v%: BBB-PAMPA). Subsequently, the acceptor wells at the bottom of the sandwich were filled with 300 µL of 10 mM PBS solution with 5% DMSO adjusted to pH 7.4. The donor wells at the top of the sandwich were hydrated with 150 µL of test compound solution. The test compound solutions were prepared in 100 times dilution. Firstly, a 10 mM stock solution was prepared from the corresponding compound in DMSO, then it was diluted with PBS (pH 6.5: GI-PAMPA or pH 7.4: BBB-PAMPA) to get 5% mixture followed by filtration through a MultiScreen Solubility filter plate. The resulting sandwich was then incubated at 37 °C for 4h. After the incubation, PAMPA sandwich plates were separated and compound concentrations in donor and acceptor solutions were investigated by HPLC-DAD. HPLC analyses were performed using a Shimadzu Prominence Modular HPLC system (Shimadzu Corporation, Kyoto, Japan) on a Kinetex® 2.6mm C18 100 Å LC column (30 × 3 mm) at 45 °C. Mobile phase flow rate was 1.1 mL/min using a gradient of AcN and 0.1% (v/v) formic acid in water (from 5% AcN to 95% in 2.5 min). Chromatograms were recorded at the wavelength of 200–500 nm, integration was carried out at the UVmax of each compound. The applied injection volume was 6 μL.
The conditions of data set [8]: pH 7.4. The source holds these as a separate data set.
Experimental: as §1
Data set [9] can be described thus: Experimental logP in octanol-water and toluene-water systems. The settings on record: for ΔlogPoct_tol: logPo/w − logPtol/w; for logP at 24 h: octanol/water; for logPtol/w: toluene-water, average ± S.E.M, five parallel experiments.
Experimental: Lipophilicity measurements of hydrocurcumins were performed by dissolving the compounds in the organic solvents (octanol and toluene) at 1mg/mL concentration and mixing them with water (1:5 and 1:10 ratios, each in five replicates). After 24 h the concentration of the compounds in the aqueous phase were calculated by using a calibration dilution series measured on RP-HPLC system. The concentration of the organic phase was calculated from the concentration of the aqueous phase.
Details of data set [10]: method as in PMID 17999464. Particulars: cited from earlier work.

In brackets after ≈: the same amount, converted by molar mass. Like-named read-outs stand apart in the source and are kept apart here.

Experimental for BBB-PAMPA permeability: as §2
Experimental for GI-PAMPA permeability: as §2

tetrahydro-demethoxycurcumin [4HDC] gave an IC50 in data set [1] of 410 ± 30 nM. Moreover, the IC50 in [2] was determined as 14.2 ± 0.5 µM. Besides, the “Kinetic Solubility” value in data set [3] is 69.5 ± 3.1 µM. Further, in data set [4], the “Met.stab. in HLM t1/2” value was 4.33 ± 0.02 min and the “Met.stab. in HLM Cl'int” value is 72.0 ± 0.4 mL/min/kg. Also, in the data set “BBB-PAMPA permeability” (PBS pH 6.5→pH 7.4, 37 °C, 4 h), the “BBB-PAMPA MR (membrane retention)” value came to 40.9 ± 1.5 % and the “BBB-PAMPA Pe” value was 20.7 ± 0.5 ·10^−7 cm/s. Moreover, in “GI-PAMPA permeability”, the “GI-PAMPA MR (membrane retention)” value stood at 12.9 ± 1.6 % and the “GI-PAMPA Pe” value was 20.4 ± 0.3 * ·10^−7 cm/s. Also, in data set [5], the “Chemical Stability Shelf-Life” value is “Stable ^#”.
On to `Cc1c(C)c2c(c(C)c1O)CCC(C)(C(=O)O)O2` (stereo not shown) [Trolox, reference compound], for which the IC50 in data set [1] came to 2020 ± 130 nM; in data set [2], 5.6 ± 0.1 µM.
As to `COc1cc(/C=C/C(O)=C/C(=O)/C=C/c2ccc(O)cc2)ccc1O` [DMC, demethoxycurcumin, reference compound], half-maximal inhibition in [1] (IC50) was put at 490 ± 30 nM. In data set [2], this molecule returned an IC50 of 16.8 ± 0.7 µM. In data set [3], this molecule had a solubility (kinetic) at 2 h of 5.7 ± 0.9 µM (≈ 1.93 µg/mL). For the same molecule, in data set [4], the CLint scaled at 25 µM is 8.3 mL/min/kg and the half-life at 25 µM stood at 37.8 ± 0.9 min. The “BBB-PAMPA MR (membrane retention)” value in the data set “BBB-PAMPA permeability” (PBS pH 6.5→pH 7.4, 37 °C, 4 h) amounted to 98.3 ± 0.1%. In addition, in “GI-PAMPA permeability”, the Papp at 4 h, 100 µM is 1.06 ± 0.06 ×10⁻⁶ cm/s and the “GI-PAMPA MR (membrane retention)” value is 85.6 ± 0.5%. Also, the “Chemical Stability Shelf-Life” value in [5] came out at 22.1 ± 0.2 min.
Take tetrahydrocurcumin [4HC]: the “BBB-PAMPA MR (membrane retention)” value is reported as 34.4 ± 0.6 %. The IC50 in data set [1] stood at 430 ± 40 nM. For the same molecule, half-maximal inhibition in data set [2] (IC50) was put at 9.8 ± 0.2 µM. Also, the “Met.stab. in HLM t1/2” value in [6] (human) turned out to be 4.34 ± 0.01 min. The “Met.stab. in HLM Cl'int” value in [6] is given as 71.8 ± 0.1 mL/min/kg. Moreover, in [7] (4 h, 100 µM), the “GI-PAMPA Pe” value is on record as 30.3 ± 1.3 * ·10^−7 cm/s. Also, the “GI-PAMPA MR (membrane retention)” value in data set [7] is on record as 13.3 ± 0.4 %. The “Kinetic Solubility” value in data set [8] is 70.3 ± 0.2 µM. Further, where the note is “4 h, 100 µM”, the “BBB-PAMPA Pe” value is listed as 31.3 ± 1.1 ·10^−7 cm/s.
Consider `COc1cc(CCC(O)CC(O)CCc2ccc(O)c(OC)c2)ccc1O` (stereo not shown) [8HC, octahydrocurcumin], for which, in data set [1], half-maximal inhibition (IC50) required 430 ± 110 nM. In data set [2], this molecule yielded an IC50 of 11.4 ± 1 µM. In addition, in data set [3], the solubility (kinetic) at 2 h worked out at 72.9 ± 0.9 µM (≈ 27.4 µg/mL). In data set [4], the CLint scaled at 25 µM was 1.4 mL/min/kg and the half-life at 25 µM stood at 232 ± 33.6 min. Moreover, the Papp at 4 h, 100 µM in the data set “BBB-PAMPA permeability” was found to be 0.97 ± 0.02 ×10⁻⁶ cm/s. The “BBB-PAMPA MR (membrane retention)” value in the data set “BBB-PAMPA permeability” (PBS pH 6.5→pH 7.4, 37 °C, 4 h) is 8.9 ± 1.4 %. Besides, in [9], the ΔlogPoct_tol was found to be 0.75, the logP at 24 h came out at 2.3 ± 0.02 and the logPtol/w worked out at 1.55 ± 0.14. Further, in “GI-PAMPA permeability”, the Papp at 4 h, 100 µM came to 0.24 ± 0.01 ×10⁻⁶ cm/s and the “GI-PAMPA MR (membrane retention)” value is recorded as 4.4 ± 0.2 %. The “Chemical Stability Shelf-Life” value in data set [5] is “Stable ^#”.
For the molecule Curcumin [reference compound], in [1], the IC50 is 320 ± 100 nM. In data set [2], this molecule came in with an IC50 of 11.8 ± 0.1 µM. Besides, the “Kinetic Solubility” value in [3] turned out to be 3.1 ± 0.1 µM. Besides, in [4], the “Met.stab. in HLM t1/2” value stood at 70.5 ± 5.1 min and the “Met.stab. in HLM Cl'int” value was 4.5 ± 0.3 mL/min/kg. Also, the “Major metabolite identified in the microsomal system (LC-MS)” value in data set [4] (semi-qualitative, by m/z change and retention time, Table S1) was 6HC as a major metabolite. In addition, the “BBB-PAMPA MR (membrane retention)” value in the data set “BBB-PAMPA permeability” (PBS pH 6.5→pH 7.4, 37 °C, 4 h) is on record as 96.7 ± 0.4%. Also, the “Safe human consumption amount” value in [10] is recorded as “up to 12 g/day”. For the same molecule, in the data set “GI-PAMPA permeability”, the “GI-PAMPA MR (membrane retention)” value amounted to 90.6 ± 0.3% and the “GI-PAMPA Pe” value is recorded as 5.0 ± 0.4 ·10^−7 cm/s. The “Chemical Stability Shelf-Life” value in data set [5] turned out to be 29.7 ± 0.6 min.
Regarding `COc1cc(CCC(O)CC(O)CCc2ccc(O)cc2)ccc1O` (stereo not shown) [8HDC, octahydro-demethoxycurcumin], half-maximal inhibition in [1] (IC50) was put at 490 ± 290 nM. In [2], this molecule came in with an IC50 of 33.1 ± 0.8 µM. The same molecule yielded a solubility (kinetic) at 2 h in [3] of 68.7 ± 0.7 µM (≈ 23.8 µg/mL). In [4], this molecule gave a CLint scaled at 25 µM of 0.9 mL/min/kg and a half-life at 25 µM of 365 ± 57.4 min. Besides, in “BBB-PAMPA permeability”, the Papp at 4 h, 100 µM turned out to be 0.53 ± 0.07 ×10⁻⁶ cm/s. The “BBB-PAMPA MR (membrane retention)” value in the data set “BBB-PAMPA permeability” (PBS pH 6.5→pH 7.4, 37 °C, 4 h) amounted to 14.9 ± 1.9 %. Besides, in “GI-PAMPA permeability”, the “GI-PAMPA MR (membrane retention)” value is reported as 1.7 ± 0.3 % and the “GI-PAMPA Pe” value is listed as 2.2 ± 0.1 * ·10^−7 cm/s. Besides, the “Chemical Stability Shelf-Life” value in [5] was “Stable ^#”.
`COc1cc(CCC(=O)CC(O)CCc2ccc(O)c(OC)c2)ccc1O` (stereo not shown) [6HC, hexahydrocurcumin] registered an IC50 in data set [1] of 390 ± 60 nM. Moreover, 9.9 ± 0.9 µM corresponded to half-maximal inhibition in data set [2] (IC50). The molecule also registered a solubility (kinetic) at 2 h in data set [3] of 74.1 ± 0.3 µM (≈ 27.7 µg/mL). This molecule had a CLint scaled at 25 µM in data set [4] of 3.3 mL/min/kg. This molecule returned a Papp at 4 h, 100 µM in the data set “BBB-PAMPA permeability” of 1.25 ± 0.01 ×10⁻⁶ cm/s. Also, the “BBB-PAMPA MR (membrane retention)” value in “BBB-PAMPA permeability” (PBS pH 6.5→pH 7.4, 37 °C, 4 h) turned out to be 13.3 ± 0.5 %. In data set [9], this molecule returned a ΔlogPoct_tol of 0.46, a logP at 24 h of 2.15 ± 0.01 and a logPtol/w of 1.69 ± 0.03. Moreover, in “GI-PAMPA permeability”, the Papp at 4 h, 100 µM amounted to 0.37 ± 0.02 ×10⁻⁶ cm/s and the “GI-PAMPA MR (membrane retention)” value amounted to 5.0 ± 0.6 %. Besides, the “Chemical Stability Shelf-Life” value in [5] is listed as “Stable ^#”.

The values above are taken from article PMC8229286, “Pharmacokinetics-Driven Evaluation of the Antioxidant Activity of Curcuminoids and Their Major Reduced Metabolites—A Medicinal Chemistry Approach” (Molecules, 2021).
